SMILES strings stand for the structures. Some results are limits rather than exact numbers.

What is called melting point is the temperature, or range, at which the solid turns liquid. Compound `COc1ccc(CC(NC(=O)OCc2ccccc2)C(=O)C=[N+]=[N-])cc1` (centres undefined) yielded a melting point of 88 to 90 °C. To `O=C1CC2O/C(=C/C3(C(=O)OCc4ccccc4)C=CC=CC3)CN12` (centres undefined) belongs 120 to 121 °C. To `CC(C)c1c(C(=O)Nc2ccccc2)c(-c2ccccc2)c(-c2ccc(F)cc2)n1CCC(O)CC(O)CC(=O)N(c1ccccc1)c1ccccc1` (centres undefined) belongs 228 to 233 °C; to `CN(C)CCCC1(c2ccc(OC3CCCCO3)cc2)Sc2ccccc2N(C)C1=O` (centres undefined), 98.5 to 101 °C; to `Cc1c(-c2ccncc2)sc(-c2ccncc2)c1C=O`, 139 to 140 °C. The compound `Clc1ccc2cc(Br)sc2n1` showed a melting point of 116 °C. For `O=C(Nc1cc(-c2c(-c3ccc(F)cc3)nc3cccnn23)ccn1)c1ccncc1` the value was 226 to 227 °C; for `Cc1ccc(-c2ccccc2)c(O)c1-c1ccccc1`, 279 to 280 °C. For `CCn1nnn(CCN2CCC(COC)(N(OCc3ccccc3)C(C)=O)CC2)c1=O`, the melting point lay in the range of 140 to 141 °C. For `COCC#Cc1ccc(C(CC2CCCC2)C(=O)O)cc1` (centres undefined) the value was 82 to 85 °C; for `O=C1NC(Cc2ccc(OCc3ccccc3)cn2)C(=O)NC1Cc1cccnc1` (centres undefined), 193 to 196 °C; for `COc1ccc(C2CCN(c3c(C)c(C)c4c(c3C)C(c3ccccc3)C(C)(C)O4)CC2)cc1OC` (centres undefined), 118 to 120 °C. For `Cc1cc(=O)n(C)c2nc(-c3ccncc3)nn12` the value was 195 to 197 °C; for `CS(=O)(=O)c1ccc(-c2[nH]c3ccccc3c2-c2ccc(F)cc2)cc1`, 224 to 226 °C. To `O=C1N(Cc2ccc3nonc3c2)c2ccccc2C12COc1cc3c(cc12)OCO3` (centres undefined) belongs 163 to 165 °C; to `O=C(O)C=CC(=O)Oc1ccccc1`, 127 to 128 °C; to `CC(C)OC(=O)c1ccc2c(c1)ncn2-c1cccc(-c2cccnc2Cl)c1`, 147 to 150 °C. The compound `CC(=O)NCc1cc([N+](=O)[O-])ccc1C` had a melting point of 133 to 138 °C.

`CN1C(C(=O)Nc2ccc(Cl)ccc2=O)=C(O)c2sccc2S1(=O)=O` came in with a melting point of 243 to 245 °C. For `COc1ccc(C(=O)c2ccccc2F)c(Cl)c1` the value was 77 to 79 °C; for `COc1cc(N2CCOCC2)ccc1Nc1nc(Nc2ccc3c(c2)CCC(=O)CC3)ncc1Cl`, 212 to 215 °C; for `CCCCN1CCCC1CNC(=O)c1cc(S(N)(=O)=O)cc2c1OC(C)C2` (centres undefined), 170 °C. For `COc1cc(OC)cc(C(=O)N2CCN(C(=O)C3=Cc4cc(OC)c(OC)cc4CC3)CC2)c1`, the melting point lay in the range of 166 to 167 °C. `Cc1c(Cl)c(Cl)nc2c1NC(=O)c1cccnc1N2C1CC1` returned a melting point above 290 °C. As to `O=c1[nH]c2ncc(-c3ccc(-c4nn[nH]n4)cc3)nc2n1CC1CCCCC1`, the melting point was above 400 °C. For `Cc1ccc(C(=O)NC(NC(=S)Nc2cc(F)ccc2F)C(F)(F)F)cc1` (centres undefined) the value was 183 to 185 °C; for `CCCCCCc1cn(CC2OC(n3cnc4c(NCc5ccc(OC)cc5)ncnc43)C(O)C2O)nn1` (centres undefined), 101 to 102 °C. `COc1ccc(Sc2cc(C(=O)O)c[nH]2)cc1` came in with a melting point of 144 to 147 °C.

Consider `CCCn1c(=O)c2[nH]c([C@@H]3CC[C@H]4CCC[C@H]43)nc2n(CCC)c1=S` (relative stereo), for which the melting point fell in the range of 135 to 137 °C. `C=CCNc1nc(NC23CC4CC(CC(C4)C2)C3)c2scc(C)c2n1` returned a melting point of 107 to 109 °C.

The compound `O=C(CN1CCC(Cc2ccc(F)cc2)CC1)Nc1ccc2[nH]ncc2c1` returned a melting point of 149 to 152 °C.

In the case of `NC(=O)c1ccccc1-c1ccc2ccc(SCc3ccccc3)nc2n1`, the melting point was in the range of 144 to 145 °C. For `CCCCc1ncc(/C=C(\Cc2cccs2)c2nnn[nH]2)n1Cc1ccc(-c2nnn[nH]2)cc1` the value was 227 to 230 °C; for `Cc1cc(O)n2nc(CC(=O)O)nc2n1`, 266 to 270 °C.

Take `CC1(C)CC(=C(c2ccc(O)cc2)c2ccc(C(N)=O)cc2)CC(C)(C)C1`: the melting point was 209 to 210 °C.

On to `CCC1(CC)C(=O)Nc2ccc(-c3ccc(C#N)n3C)cc21`, for which the melting point fell in the range of 233 to 235 °C. `COc1ccc(CSC(C)(C)C2(c3ccc(F)cc3F)CO2)cc1` (centres undefined): the melting point lay within 55 to 56 °C. To `CNC(=O)C(Sc1nc2cc(Cl)ccc2s1)c1ccccc1` (centres undefined) belongs 170 to 171 °C; to `CCCOc1ccccc1-c1nc2nc(CC)ncc2c(=O)[nH]1`, 118 to 119 °C; to `CC(C)(C)OC(=O)CN(Cc1cc(C(F)(F)F)cc(C(F)(F)F)c1)Cc1cc2ccccc2nc1Cl`, 84 °C. With `CCCc1c(OCCCCSCCC(=O)O)ccc(C(C)=O)c1O`, the melting point lay in the range of 75 to 77 °C.

`O=C(O)c1cccc(-c2ccc3c(c2)C(Oc2ccc(Cl)cc2Cl)CCC3)c1` (centres undefined) came in with a melting point of 176 to 181 °C.

`O=C1N[C@H](Cc2ccc(C(F)(F)F)cc2)[C@H](c2ccc(F)c(F)c2)O1` (racemic) gave a melting point of 157 to 158 °C. For the compound `O=c1[nH]c2ccccc2c2c(C(O)CC3CCNCC3)n(-c3ccccc3)nc12` (centres undefined), the melting point fell in the range of 258 to 261 °C. For `Cc1[nH]c(=O)c(C#N)cc1-c1ccccc1OCC(C)C(=O)O` (centres undefined) the value was 228 to 230 °C.

As for `Cc1cc(N2N=CCNC2=O)cc(Cl)c1C(C#N)c1ccc(Cl)nc1` (centres undefined), the melting point is 211 to 212 °C. To `Cn1cnc(COc2nn3c(-c4ccc(F)cc4)nnc3cc2-c2ccccc2)n1` belongs 233 to 235 °C; to `CCS(=O)(=O)N(C)Cc1ccc2[nH]cc(CCCN3CCN(c4ncncc4OC)CC3)c2c1`, 113 to 115 °C; to `CN(C)CCNc1ccnc2cc(C(F)(F)F)ccc12`, 110 to 113 °C. The compound `CCCNC(=O)CCCCCn1c(COCC)nc2c(N)nc3ccccc3c21` yielded a melting point of 161 to 162 °C.

`CCOC(=O)c1sc2nc(C(C)C)ccc2c1N` registered a melting point of 161 to 162 °C. Compound `O=S(=O)(Cl)c1ccc(-c2cccc(F)c2)s1` returned a melting point of 75 to 84 °C. For `CN1CCN(C2=Nc3ccccc3Cn3cccc32)CC1` the value was 139 to 141 °C. As for `O=C(O)c1ccccc1OCCCN1C(=O)c2ccccc2C1=O`, the melting point was in the range of 155 to 157 °C.

Take `COc1ccc(/C(C)=C/c2ccc(CO)cc2)cc1C(C)(C)C`: the melting point fell in the range of 88 to 90 °C. To `COc1cc2nc(Cl)nc(-c3cccc([N+](=O)[O-])c3)c2cc1OC` belongs 228 to 230 °C; to `CCCc1c(OCCCCCC(=O)NCCSc2ccncc2)ccc(C(C)=O)c1O`, 63 to 65 °C.

Take `O=C(CN1CCCC1)c1ccc(F)cc1`: the melting point was 49 to 50 °C. In turn, `COC(=O)C(=O)C12CC3CC(CC(O)(C3)C1)C2` had a melting point of 164 to 166 °C.

With `O=C(O)C1Cc2cc3c(=O)c4ccccc4oc3c(Cl)c2O1` (centres undefined), the melting point lay in the range of 290 to 293 °C. To `CN(c1cccc2cc(C(=O)O)[nH]c12)S(=O)(=O)c1nccn1C` belongs 241 to 242 °C; to `O=C(N=CNO)c1cc2c(cn1)[nH]c1ccccc12`, 235 to 240 °C. For `O=C1C(=Cc2ccccc2)CCc2cc(OCCc3c[nH]cn3)ccc21`, the melting point was in the range of 53 to 56 °C. To `CC(C)(C)c1ccccc1N1CCN(C(=O)CCC(=O)NS(C)(=O)=O)CC1` belongs 89 to 90 °C.

In the case of `Oc1c(C2NCCc3ccccc32)ccc2ccccc12` (centres undefined), the melting point lay within 117 to 120 °C.

`CC(c1ccc(C=Cc2ccccc2)s1)N(O)C(N)=O` (centres undefined): the melting point lay within 160 to 163 °C. With `Cc1cc2oc(=O)c3c(c2cc1N)CCN(CCN1CC2CCC(CC2)C1)C3`, the melting point was in the range of 142 to 143 °C. To `O=C(Nc1cccc(-c2ccccc2)c1)Nc1ccccc1CCO` belongs 196 to 198 °C; to `CN1CCN(c2cccc3c2C[C@H](NC(=O)c2ccc(-n4cccc4)cc2)CC3)CC1`, 245 to 247 °C. For `CC(C)(C)OC(=O)Nc1ccc(Cl)c(O)c1` the value was 103 to 106 °C; for `CC(=O)c1ccc2c(c1)[C@@H](N1CCCC1=O)[C@H](O)C(C)(C)O2` (relative stereo), 218 to 219 °C; for `CCCCn1nc(Cc2ccc(-c3ccccc3-c3nnn[nH]3)cc2)c(C(=O)O)c1CC`, 191 to 192 °C. For `O=CNNc1ccc(NC(=S)N2CC=CC2)cc1`, the melting point was in the range of 218 to 220 °C. For `Nc1cc(Cl)cc(C(F)(F)F)c1N` the value was 53 °C; for `BrCCCOc1ccc(-c2ccccc2)cc1`, 60 to 63 °C. To `CON(C)C(=O)C(Cc1c[nH]c2ccccc12)NC(=O)OC(C)(C)C` (centres undefined) belongs 129 to 130 °C; to `CSc1cc(CCC(=O)OC(C)(C)C)nc(-c2nc(=O)c3ccccc3s2)c1`, 155 to 156 °C.

`O=C(/C=C/[C@@H]1[C@H]2CC(=O)O[C@H]2C[C@H]1OC(=O)c1ccccc1)COc1cccc(Cl)c1` yielded a melting point of 101 to 102 °C. For `CC(=O)N1c2c(ccn3cc(C)nc23)C(=O)C(OC(=O)C(C)(C)C)C1c1ccccc1` (centres undefined) the value was 168 to 169 °C; for `CCOCCC(=O)OC1(C(=O)CO)CCC2C3CCC4=CC(=O)CCC4(C)C3C(O)CC21C` (centres undefined), 149 °C; for `Cc1cc(-c2cc(C(F)F)nn2-c2ccc(S(C)(=O)=O)c(F)c2)ccc1-c1cscn1`, 123 °C. To `N#Cc1ccccc1-c1ccc(CNc2ccnc3ccnn23)cc1` belongs 170 °C; to `Cc1oc(-c2ccco2)nc1CCOc1ccc([N+](=O)[O-])cn1`, 120 to 122 °C. To `COC(=O)c1sc(Br)cc1N` belongs 173 to 176 °C; to `NC(=S)N1CCN(c2nc3cccccc-3n2)CC1`, 245 to 247 °C; to `CC(C)(C)N(C(=O)C(O)(C(=O)O)c1ccccc1)C(C)(C)C` (centres undefined), 99 to 100 °C. In turn, `CC1=NCCSC1=NOC(=O)N(C)C` gave a melting point of 64 to 65 °C. For `O=S(=O)(/C=C/c1ccccc1)CS(=O)(=O)/C=C/c1ccccc1` the value was 128 to 130 °C; for `COc1cc(CC(=O)O)cc2c1C(=O)c1ccccc1CC2`, 189 to 199 °C.

For the origin of these results see a melting point compilation (Tetko et al.; mined from patent text by program, amines drawn as free bases though some values may be those of a salt).
